Measured values as given in ChEMBL document CHEMBL3046115, “Modification and biological evaluation of novel 4-hydroxy-pyrone derivatives as non-peptidic HIV-1 protease inhibitors” (Med Chem Res, 2011).
The source made the active and inactive calls. The rule behind the calls is not given here.

Experiments:
[1] = molecular target: Protease (Human immunodeficiency virus 1, UniProt Q9YQ12); assay: Inhibition of Human immunodeficiency virus 1 protease using Lys-Ala-Arg-Val-Leu-Phe(NO2)-Glu-Ala-Met as substrate
Chain of Protease (Q9YQ12 whole entry): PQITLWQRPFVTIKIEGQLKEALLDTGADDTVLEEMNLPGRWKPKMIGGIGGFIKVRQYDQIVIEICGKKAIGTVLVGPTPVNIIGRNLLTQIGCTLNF

[2] = test system: Simian immunodeficiency virus; assay: Antiviral activity against Simian immunodeficiency virus infected CEM174 cells assessed as inhibition of viral-induced syncytium formation after 5 days by microscopic analysis; assay type: functional, organism-based; settings: CEM174, 120 h
[3] = Cytotoxicity against Homo sapiens (human) CEM174 cells; assay type: cell-based; settings: read-out: TC50 (the source's name)
[4] = Therapeutic index, ratio of TC50 for human CEM174 cells to EC50 for SIV infected in human CEM174 cells; assay type: cell-based; settings: CEM174 cells (uninfected for TC50, SIV-infected for EC50), read-out: TI
[5] = molecular target: Protease (Human immunodeficiency virus 1) (UniProt Q9YQ12); assay: Inhibition of Human immunodeficiency virus 1 protease expressed in human 293T cells cotransfected with pGAGPOL and pGAG assessed as Gagp24 protein expression after 48 hr by Western blot analysis; assay type: cell-based
Chain of Protease (Human immunodeficiency virus 1) (Q9YQ12 as listed by the source): as the sequence (Q9YQ12 whole entry) above

SMILES	IC50 [1]	other results
Cc1ccc(C(C)C)c(SC2=C(O)CC(CCc3ccccc3)(C(C)C)OC2=O)c1 (centres undefined)	1.1 nM	EC50 [2]: 15 µM
O=C(O)CCCCC1(CCc2ccccc2)CC(O)=C(SCCc2ccccc2)C(=O)O1 (centres undefined)	5 nM	–
CC(C)(C)NC(=O)[C@@H]1CN(Cc2cccnc2)CCN1C[C@@H](O)C[C@@H](Cc1ccccc1)C(=O)N[C@H]1c2ccccc2C[C@H]1O	–	CC50 [3]: > 100 µM; selectivity ratio [4]: > 1000; EC50 [2]: < 0.1 µM
Cc1ccc(C)c(SC2=C(O)CC(COc3cccc4ccccc34)(c3ccccc3)OC2=O)c1 (racemic)	126 nM	–
CCOc1ccc(OCC)c(SC2=C(O)CC(COc3cccc4ccccc34)(c3ccccc3)OC2=O)c1 (racemic)	3.5 nM	inhibition [5]: Active
O=C1OC(COc2cccc3ccccc23)(c2ccccc2)CC(O)=C1SCc1ccccc1 (racemic)	128 nM	–
O=C1OC(COc2ccc3ccccc3c2)(c2ccccc2)CC(O)=C1Sc1ccccc1 (racemic)	126 nM	–
Cc1ccccc1SC1=C(O)CC(COc2ccc3ccccc3c2)(c2ccccc2)OC1=O (racemic)	61 nM	–
CCc1ccccc1SC1=C(O)CC(COc2ccc3ccccc3c2)(c2ccccc2)OC1=O (racemic)	22 nM	–
O=C1OC(COc2ccc3ccccc3c2)(c2ccccc2)CC(O)=C1Sc1ccccc1Cl (racemic)	89 nM	–
Cc1ccc(C)c(SC2=C(O)CC(COc3ccc4ccccc4c3)(c3ccccc3)OC2=O)c1 (racemic)	65 nM	–
CCOc1ccc(OCC)c(SC2=C(O)CC(COc3ccc4ccccc4c3)(c3ccccc3)OC2=O)c1 (racemic)	9.2 nM	inhibition [5]: Active
O=C1OC(COc2ccc3ccccc3c2)(c2ccccc2)CC(O)=C1SCc1ccccc1 (racemic)	73 nM	–
O=C1OC(CSc2ccccc2)(c2ccccc2)CC(O)=C1Sc1ccccc1 (racemic)	258 nM	–
Cc1ccccc1SC1=C(O)CC(CSc2ccccc2)(c2ccccc2)OC1=O (racemic)	240 nM	–
CCc1ccccc1SC1=C(O)CC(CSc2ccccc2)(c2ccccc2)OC1=O (racemic)	238 nM	–
O=C1OC(CSc2ccccc2)(c2ccccc2)CC(O)=C1Sc1ccccc1Cl (racemic)	70 nM	–
Cc1ccc(C)c(SC2=C(O)CC(CSc3ccccc3)(c3ccccc3)OC2=O)c1 (racemic)	196 nM	–
CCOc1ccc(OCC)c(SC2=C(O)CC(CSc3ccccc3)(c3ccccc3)OC2=O)c1 (racemic)	24 nM	–
O=C1OC(CSc2ccccc2)(c2ccccc2)CC(O)=C1SCc1ccccc1 (racemic)	32 nM	–
O=C1OC(COc2cccc3ccccc23)(c2ccccc2)CC(O)=C1Sc1ccccc1 (racemic)	159 nM	–
Cc1ccccc1SC1=C(O)CC(COc2cccc3ccccc23)(c2ccccc2)OC1=O (racemic)	64 nM	–
CCc1ccccc1SC1=C(O)CC(COc2cccc3ccccc23)(c2ccccc2)OC1=O (racemic)	100 nM	–
O=C1OC(COc2cccc3ccccc23)(c2ccccc2)CC(O)=C1Sc1ccccc1Cl (racemic)	59 nM	–
